Assay: xn = mol fraction of the nth substance listed
Details: 85 kPa, Liquid; for viscosity: Concentric cylinders viscometry; for mass density: Vibrating tube method

CCC(C)O (stereo not drawn) [butan-2-ol] + CC(C)O
Details | mass density [kg/m3] | viscosity [mPa·s]
293.15 K, x1 = 0.0807 | 787.1 | 2.497
293.15 K, x1 = 0.1619 | 789.2 | 2.584
293.15 K, x1 = 0.2385 | 791 | 2.674
293.15 K, x1 = 0.3492 | 793.6 | 2.814
293.15 K, x1 = 0.4386 | 795.7 | 2.932
293.15 K, x1 = 0.56 | 798.3 | 3.097
293.15 K, x1 = 0.6489 | 800 | 3.221
293.15 K, x1 = 0.7402 | 801.8 | 3.352
293.15 K, x1 = 0.8494 | 803.7 | 3.511
293.15 K, x1 = 0.9403 | 805.3 | 3.648
293.15 K, x1 = 1 | 806.2 | 3.743
298.15 K, x1 = 0.0807 | 782.9 | 2.146
298.15 K, x1 = 0.1619 | 785 | 2.211
298.15 K, x1 = 0.2385 | 786.9 | 2.282
298.15 K, x1 = 0.3492 | 789.5 | 2.391
298.15 K, x1 = 0.4386 | 791.5 | 2.481
298.15 K, x1 = 0.56 | 794.1 | 2.607
298.15 K, x1 = 0.6489 | 795.9 | 2.702
298.15 K, x1 = 0.7402 | 797.6 | 2.801
298.15 K, x1 = 0.8494 | 799.6 | 2.923
298.15 K, x1 = 0.9403 | 801.1 | 3.028
298.15 K, x1 = 1 | 802 | 3.101
303.15 K, x1 = 0.0807 | 778.7 | 1.851
303.15 K, x1 = 0.1619 | 780.8 | 1.901
303.15 K, x1 = 0.2385 | 782.7 | 1.955
303.15 K, x1 = 0.3492 | 785.3 | 2.038
303.15 K, x1 = 0.4386 | 787.4 | 2.107
303.15 K, x1 = 0.56 | 790 | 2.204
303.15 K, x1 = 0.6489 | 791.8 | 2.276
303.15 K, x1 = 0.7402 | 793.5 | 2.352
303.15 K, x1 = 0.8494 | 795.5 | 2.444
303.15 K, x1 = 0.9403 | 797 | 2.524
303.15 K, x1 = 1 | 797.9 | 2.579
308.15 K, x1 = 0.0807 | 774.4 | 1.603
308.15 K, x1 = 0.1619 | 776.5 | 1.643
308.15 K, x1 = 0.2385 | 778.5 | 1.684
308.15 K, x1 = 0.3492 | 781.1 | 1.747
308.15 K, x1 = 0.4386 | 783.1 | 1.801
308.15 K, x1 = 0.56 | 785.7 | 1.876
308.15 K, x1 = 0.6489 | 787.5 | 1.932
308.15 K, x1 = 0.7402 | 789.3 | 1.991
308.15 K, x1 = 0.8494 | 791.2 | 2.062
308.15 K, x1 = 0.9403 | 792.7 | 2.121
308.15 K, x1 = 1 | 793.6 | 2.162
313.15 K, x1 = 0.0807 | 769.9 | 1.397
313.15 K, x1 = 0.1619 | 772.1 | 1.427
313.15 K, x1 = 0.2385 | 774 | 1.459
313.15 K, x1 = 0.3492 | 776.7 | 1.508
313.15 K, x1 = 0.4386 | 778.7 | 1.549
313.15 K, x1 = 0.56 | 781.3 | 1.608
313.15 K, x1 = 0.6489 | 783.1 | 1.652
313.15 K, x1 = 0.7402 | 784.9 | 1.697
313.15 K, x1 = 0.8494 | 786.8 | 1.751
313.15 K, x1 = 0.9403 | 788.4 | 1.798
313.15 K, x1 = 1 | 789.2 | 1.828
318.15 K, x1 = 0.0807 | 765.5 | 1.221
318.15 K, x1 = 0.1619 | 767.6 | 1.246
318.15 K, x1 = 0.2385 | 769.6 | 1.271
318.15 K, x1 = 0.3492 | 772.2 | 1.31
318.15 K, x1 = 0.4386 | 774.3 | 1.342
318.15 K, x1 = 0.56 | 776.9 | 1.388
318.15 K, x1 = 0.6489 | 778.7 | 1.422
318.15 K, x1 = 0.7402 | 780.4 | 1.457
318.15 K, x1 = 0.8494 | 782.4 | 1.5
318.15 K, x1 = 0.9403 | 783.9 | 1.536
318.15 K, x1 = 1 | 784.7 | 1.559
323.15 K, x1 = 0.0807 | 760.9 | 1.072
323.15 K, x1 = 0.1619 | 763.1 | 1.093
323.15 K, x1 = 0.2385 | 765 | 1.113
323.15 K, x1 = 0.3492 | 767.7 | 1.144
323.15 K, x1 = 0.4386 | 769.7 | 1.169
323.15 K, x1 = 0.56 | 772.4 | 1.205
323.15 K, x1 = 0.6489 | 774.2 | 1.231
323.15 K, x1 = 0.7402 | 775.9 | 1.258
323.15 K, x1 = 0.8494 | 777.9 | 1.291
323.15 K, x1 = 0.9403 | 779.4 | 1.318
323.15 K, x1 = 1 | 780.2 | 1.318

CCC(C)O (stereo not drawn) [butan-2-ol] + CCCO
Details | mass density [kg/m3] | viscosity [mPa·s]
293.15 K, x1 = 0.0818 | 804.1 | 2.323
293.15 K, x1 = 0.1601 | 804.6 | 2.428
293.15 K, x1 = 0.2399 | 805 | 2.54
293.15 K, x1 = 0.3499 | 805.5 | 2.702
293.15 K, x1 = 0.4399 | 805.8 | 2.838
293.15 K, x1 = 0.56 | 806 | 3.023
293.15 K, x1 = 0.6515 | 806.1 | 3.166
293.15 K, x1 = 0.7385 | 806.2 | 3.304
293.15 K, x1 = 0.85 | 806.3 | 3.486
293.15 K, x1 = 0.9407 | 806.3 | 3.639
293.15 K, x1 = 1 | 806.2 | 3.743
298.15 K, x1 = 0.0818 | 800.1 | 2.047
298.15 K, x1 = 0.1601 | 800.6 | 2.126
298.15 K, x1 = 0.2399 | 801 | 2.211
298.15 K, x1 = 0.3499 | 801.5 | 2.331
298.15 K, x1 = 0.4399 | 801.8 | 2.432
298.15 K, x1 = 0.56 | 802 | 2.57
298.15 K, x1 = 0.6515 | 802.1 | 2.676
298.15 K, x1 = 0.7385 | 802.2 | 2.778
298.15 K, x1 = 0.85 | 802.2 | 2.913
298.15 K, x1 = 0.9407 | 802.1 | 3.025
298.15 K, x1 = 1 | 802 | 3.101
303.15 K, x1 = 0.0818 | 796.1 | 1.824
303.15 K, x1 = 0.1601 | 796.7 | 1.893
303.15 K, x1 = 0.2399 | 797.1 | 1.962
303.15 K, x1 = 0.3499 | 797.6 | 2.057
303.15 K, x1 = 0.4399 | 797.9 | 2.134
303.15 K, x1 = 0.56 | 798.1 | 2.228
303.15 K, x1 = 0.6515 | 798.2 | 2.31
303.15 K, x1 = 0.7385 | 798.2 | 2.38
303.15 K, x1 = 0.85 | 798.2 | 2.466
303.15 K, x1 = 0.9407 | 798.1 | 2.536
303.15 K, x1 = 1 | 797.9 | 2.579
308.15 K, x1 = 0.0818 | 792.1 | 1.619
308.15 K, x1 = 0.1601 | 792.7 | 1.672
308.15 K, x1 = 0.2399 | 793.1 | 1.724
308.15 K, x1 = 0.3499 | 793.6 | 1.795
308.15 K, x1 = 0.4399 | 793.8 | 1.851
308.15 K, x1 = 0.56 | 794 | 1.925
308.15 K, x1 = 0.6515 | 794.1 | 1.98
308.15 K, x1 = 0.7385 | 794.1 | 2.03
308.15 K, x1 = 0.85 | 794 | 2.089
308.15 K, x1 = 0.9407 | 793.8 | 2.135
308.15 K, x1 = 1 | 793.6 | 2.162
313.15 K, x1 = 0.0818 | 788.1 | 1.444
313.15 K, x1 = 0.1601 | 788.7 | 1.485
313.15 K, x1 = 0.2399 | 789.1 | 1.525
313.15 K, x1 = 0.3499 | 789.6 | 1.58
313.15 K, x1 = 0.4399 | 789.8 | 1.622
313.15 K, x1 = 0.56 | 789.9 | 1.676
313.15 K, x1 = 0.6515 | 789.9 | 1.713
313.15 K, x1 = 0.7385 | 789.8 | 1.747
313.15 K, x1 = 0.85 | 789.7 | 1.786
313.15 K, x1 = 0.9407 | 789.5 | 1.814
313.15 K, x1 = 1 | 789.2 | 1.828
318.15 K, x1 = 0.0818 | 784 | 1.293
318.15 K, x1 = 0.1601 | 784.6 | 1.326
318.15 K, x1 = 0.2399 | 785.1 | 1.358
318.15 K, x1 = 0.3499 | 785.5 | 1.398
318.15 K, x1 = 0.4399 | 785.7 | 1.429
318.15 K, x1 = 0.56 | 785.8 | 1.467
318.15 K, x1 = 0.6515 | 785.7 | 1.493
318.15 K, x1 = 0.7385 | 785.6 | 1.516
318.15 K, x1 = 0.85 | 785.3 | 1.54
318.15 K, x1 = 0.9407 | 785.1 | 1.555
318.15 K, x1 = 1 | 784.7 | 1.559
323.15 K, x1 = 0.0818 | 779.9 | 1.16
323.15 K, x1 = 0.1601 | 780.5 | 1.185
323.15 K, x1 = 0.2399 | 781 | 1.209
323.15 K, x1 = 0.3499 | 781.4 | 1.24
323.15 K, x1 = 0.4399 | 781.5 | 1.263
323.15 K, x1 = 0.56 | 781.5 | 1.29
323.15 K, x1 = 0.6515 | 781.4 | 1.308
323.15 K, x1 = 0.7385 | 781.3 | 1.322
323.15 K, x1 = 0.85 | 781 | 1.336
323.15 K, x1 = 0.9407 | 780.6 | 1.341
323.15 K, x1 = 1 | 780.2 | 1.318

Reference: the NIST ThermoML archive (doi:10.1021/acs.jced.8b01097)
